Laboratory results from US11691986B2, “PTEFB inhibiting macrocyclic compounds” (Bayer Aktiengesellschaft, priority 2017, dated 2023).
pIC50, pKd: −log10 of the molar value.

Tests used:
[1] = biological target: T1, human PTEFb (CDK9/Cyclin T1) (Homo sapiens, UniProt P50750); assay: Surface Plasmon Resonance PTEFb; type: binding; settings: SPR, 37° C.; for residence time: 1/koff, read-out: Target residence time; for residence time / koff: * = arithmetic mean; for pKd: * = arithmetic mean of more than one value, read-out: Equilibrium dissociation constant KD; for koff: < = below what is resolvable, read-out: Dissociation rate constant koff
T1 construct: purchased ProQinase, Freiburg, Germany
T1 sequence (P50750 whole entry): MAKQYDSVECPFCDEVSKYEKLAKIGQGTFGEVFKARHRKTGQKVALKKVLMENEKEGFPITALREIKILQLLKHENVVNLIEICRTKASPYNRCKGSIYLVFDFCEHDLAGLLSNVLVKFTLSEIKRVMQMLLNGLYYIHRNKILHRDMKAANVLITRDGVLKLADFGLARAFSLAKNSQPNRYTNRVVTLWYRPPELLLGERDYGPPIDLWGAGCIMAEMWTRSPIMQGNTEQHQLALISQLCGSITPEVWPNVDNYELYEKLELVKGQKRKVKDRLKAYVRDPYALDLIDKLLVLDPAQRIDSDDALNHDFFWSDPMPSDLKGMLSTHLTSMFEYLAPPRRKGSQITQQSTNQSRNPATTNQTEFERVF
T1 sequence (O60563 whole entry partner): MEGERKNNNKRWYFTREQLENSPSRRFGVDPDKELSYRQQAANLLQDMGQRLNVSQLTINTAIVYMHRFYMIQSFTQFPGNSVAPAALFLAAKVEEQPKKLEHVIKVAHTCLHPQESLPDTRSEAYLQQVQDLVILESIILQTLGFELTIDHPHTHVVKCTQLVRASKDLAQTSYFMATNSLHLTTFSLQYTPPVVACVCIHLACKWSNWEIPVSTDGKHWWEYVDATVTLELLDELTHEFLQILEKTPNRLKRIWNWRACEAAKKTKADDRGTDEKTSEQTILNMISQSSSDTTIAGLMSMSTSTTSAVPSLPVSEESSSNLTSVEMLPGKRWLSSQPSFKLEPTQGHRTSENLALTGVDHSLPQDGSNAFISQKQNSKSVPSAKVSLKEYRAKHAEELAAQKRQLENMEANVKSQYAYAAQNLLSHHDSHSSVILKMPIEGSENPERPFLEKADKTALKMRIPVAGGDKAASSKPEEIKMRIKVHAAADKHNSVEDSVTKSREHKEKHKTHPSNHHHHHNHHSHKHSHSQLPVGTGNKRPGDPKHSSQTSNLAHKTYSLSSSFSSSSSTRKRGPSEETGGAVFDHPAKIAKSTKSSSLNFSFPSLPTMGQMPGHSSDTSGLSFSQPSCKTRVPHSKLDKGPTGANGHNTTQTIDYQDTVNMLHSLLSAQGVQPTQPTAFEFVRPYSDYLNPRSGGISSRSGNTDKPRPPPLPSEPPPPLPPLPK
Excerpt: 8. Surface Plasmon Resonance PTEFb
The ability of the compounds according to the invention to bind human PTEFb may be determined using surface plasmon resonance (SPR). KD values and koff values may be measured using a Biacore® T200 instrument (GE Healthcare, Uppsala, Sweden).
For SPR measurements, recombinant human PTEFb (CDK9/Cyclin T1 recombinant human active protein kinase purchased from ProQinase, Freiburg, Germany) is immobilized using standard amine coupling (Johnsson B et al, Anal Biochem. 1991 Nov. 1; 198(2):268-77). Briefly, carboxymethylated dextran biosensor chips (CM7, GE Healthcare) are activated with N-ethyl-N′-(3-dimethylaminopropyl)-carbodiimide hydrochloride (EDC) and N-hydroxysuccinimide (NHS) according to the supplier's instructions. Human PTEFb is diluted in 1×HBS-EP+(GE Healthcare) and injected on the activated chip surface. Subsequently, a 1:1 solution of 1 M ethanolamine-HCl (GE Healthcare) and 1×HBS-EP is injected to block unreacted groups, resulting in approximately 4000 response units (RU) of immobilized protein. A reference surface is generated by treatment with NHS-EDC and ethanolamine-HCl. Compounds are dissolved in 100% dimethylsulfoxide (DMSO, Sigma-Aldrich, Germany) to a concentration of 10 mM and subsequently diluted in running buffer (1×HBS-EP+pH 7.4 [generated from HBS-EP+Buffer 10×(GE Healthcare): 0.1 M HEPES, 1.5 M NaCl, 30 mM EDTA and 0.5% v/v Surfactant P20], 1% v/v DMSO). For kinetic measurements, serial dilutions of compound (0.078 nM up to 25 nM) are injected over immobilized protein. Binding kinetics is measured at 37° C. with a flow rate of 100 μl/min in running buffer. Compound concentrations are injected for 70 s followed by a dissociation time of 1100 s. The resulting sensorgrams are double-referenced against the reference surface as well as against blank injections.
The double-referenced sensorgrams are fit to a simple reversible Langmuir 1:1 reaction mechanism as implemented in the Biacore® T200 evaluation software 2.0 (GE Healthcare). In cases were full compound dissociation has not occurred at the end of the dissociation phase, the Rmax parameter (response at saturation) is fit as local variable. In all other cases, Rmax is fit as global variable.

A2780 cells = assay: Proliferation assay, A2780 (Cell Titre-Glo); type: cell-based; settings: Homo sapiens; A2780, 72-hour exposure; read-out: Inhibition of A2780 cell proliferation IC50
Method: (§1) A2780 human ovarian carcinoma cells (ECACC #93112519) and non-adherent MOLM-13 human acute myeloid leukemia cells (DSMZ ACC 554) were seeded at a density of 3,000 cell/well (A2780) or 5,000 cells/well (MOLM-13) in a 96-well multititer plate in 150 μL of growth medium supplemented 10% fetal calf serum. After 24 hours, cell viability of one plate (zero-point plate) was determined with the Cell Titre-Glo Luminescent Cell Viability Assay (Promega), while the medium of the other plates was supplemented with the test substances in various concentrations (0 μM, as well as in the range of 0.0001-10 μM; the final concentration of the solvent dimethyl sulfoxide was adjusted to 0.1%) using a Hewlett-Packard HP D300 Digital Dispenser. Cell viability was assessed after 72-hour exposure with the Cell Titre-Glo Luminescent Cell Viability Assay (Promega). IC50 values (inhibitory concentration at 50% of maximal effect) were determined by means of a 4 parameter fit on measurement data which were normalized to vehicle (DMSO) treated cells (=100%) and measurement readings taken immediately before compound exposure (=0%).

NCI-H460 cells = assay: Proliferation assay, NCI-H460 (crystal violet); type: cell-based; settings: Homo sapiens, 96 h; NCI-H460, 4 days; read-out: Inhibition of NCI-H460 cell proliferation IC50
Method: Cultivated tumour cells (HeLa, human cervical tumour cells, ATCC CCL-2; NCI-H460, human non-small cell lung carcinoma cells, ATCC HTB-177; DU 145, hormone-independent human prostate carcinoma cells, ATCC HTB-81; HeLa-MaTu-ADR, multidrug-resistant human cervical carcinoma cells, EPO-GmbH Berlin; Caco-2, human colorectal carcinoma cells, ATCC HTB-37; B16F10, mouse melanoma cells, ATCC CRL-6475) were plated at a density of 5,000 cells/well (DU145, HeLa-MaTu-ADR), 3,000 cells/well (NCI-H460, HeLa), 1,500 cells/well (Caco-2), or 1,000 cells/well (B16F10) in a 96-well multititer plate in 200 μL of their respective growth medium supplemented 10% fetal calf serum. After 24 hours, the cells of one plate (zero-point plate) were stained with crystal violet (see below), while the medium of the other plates was supplemented with the test substances in various concentrations (0 μM, as well as in the range of 0.0001-10 μM; the final concentration of the solvent dimethyl sulfoxide was adjusted to 0.1%) using a Hewlett-Packard HP D300 Digital Dispenser. The cells were incubated for 4 days in the presence of test substances. Cell proliferation was determined by staining the cells with crystal violet: the cells were fixed by adding 20 μl/measuring point of an 11% glutaric aldehyde solution for 15 minutes at room temperature. After three washing cycles of the fixed cells with water, the plates were dried at room temperature. The cells were stained by adding 100 μl/measuring point of a 0.1% crystal violet solution (pH 3.0). After three washing cycles of the stained cells with water, the plates were dried at room temperature. The dye was dissolved by adding 100 μl/measuring point of a 10% acetic acid solution. The extinction was determined by photometry at a wavelength of 595 nm. The change of cell number, in percent, was calculated by normalization of the measured values to the extinction values of the zero-point plate (=0%) and the extinction of the untreated (0 Wm) cells (=100%). The IC50 values (inhibitory concentration at 50% of maximal effect) were determined by means of a 4 parameter fit.

MOLM-13 cells = assay: Proliferation assay, MOLM-13 (Cell Titre-Glo); type: cell-based; settings: Homo sapiens; MOLM-13, 72-hour exposure; read-out: Inhibition of MOLM-13 cell proliferation IC50
Method: as §1

In the case of `CC1CCCNc2cc(ccc2F)-c2nc(ncc2F)Nc2cc(CS(C)(=O)=O)cc(c2)O1` (racemic) [Example 8, (rac)-3,20-difluoro-14-methyl-10-[(methylsulfonyl)methyl]-13-oxa-5,7,18,25-tetraazatetracyclo[17.3.1.1^2,6.1^8,12]pentacosa-1(23),2(25),3,5,8(24),9,11,19,21-nonaene], the residence time [1] was 33 min, the pKd [1] was 9.55 and the koff [1] was 0.0005 s⁻¹. For the same compound, the pIC50 (A2780 cells) was 8.11.
For `CS(=N)(=O)Cc1cc2cc(c1)OCCCCNc1cc(ccc1F)-c1nc(ncc1F)N2` (racemic) [Example 2, (rac)-3,20-difluoro-10-[(S-methylsulfonimidoyl)methyl]-13-oxa-5,7,18,25-tetraazatetracyclo[17.3.1.1^2,6.1^8,12]pentacosa-1(23),2(25),3,5,8(24),9,11,19,21-nonaene], the pIC50 (NCI-H460 cells) was 8.04, the residence time [1] was over 208 min and the pKd [1] was 10.13. For the same compound, the koff [1] was under 8e-05 s⁻¹, the pIC50 (MOLM-13 cells) was 8.70 and the pIC50 (A2780 cells) was 8.92.
`CC(C)(C)OC(=O)N=S(C)(=O)Cc1cc2cc(c1)OCCCCNc1cc(ccc1F)-c1nc(ncc1F)N2` (racemic) [Example 1, (rac)-tert-butyl [{[3,20-difluoro-13-oxa-5,7,18,25-tetraazatetracyclo[17.3.1.1^2,6.1^8,12]pentacosa-1(23),2(25),3,5,8(24),9,11,19,21-nonaen-10-yl]methyl}(methyl)oxido-λ^6-sulfanylidene]carbamate] showed a pIC50 (NCI-H460 cells) of 7.48, a pIC50 (MOLM-13 cells) of 8.15 and a pIC50 (A2780 cells) of 7.89.
For `CS(=N)(=O)Cc1cc2cc(c1)OCCCNc1cc(ccc1F)-c1nc(ncc1F)N2` (racemic) [Example 3, (rac)-3,19-difluoro-10-[(S-methylsulfonimidoyl)methyl]-13-oxa-5,7,17,24-tetraazatetracyclo[16.3.1.1^2,6.1^8,12]tetracosa-1(22),2(24),3,5,8(23),9,11,18,20-nonaene], the pIC50 (NCI-H460 cells) was 7.60, the residence time [1] was 13 min and the pKd [1] was 9.42. It also gave a koff [1] of 0.0012 s⁻¹, a pIC50 (MOLM-13 cells) of 8.24 and a pIC50 (A2780 cells) of 8.23.
